Article PMC7582905, “Effect of Disulfide Cyclization of Ultrashort Cationic Lipopeptides on Antimicrobial Activity and Cytotoxicity” (International Journal of Molecular Sciences, 2020)
Where a SMILES comes first, the peptide text is derived from it. The star is where a group is joined. Palmitoyl = CCCCCCCCCCCCCCCC(=O)*

What was measured:
[1] = tested on: human red blood cells (hRBCs); assay: Hemolysis assay; assay type: cell-based; settings: peptide concentration causing 50% hemolysis; 4% (v/v) hRBCs in PBS, 1 h, 37 °C, absorbance 540 nm, triplicate
Experimental: The hemolysis assay was performed by using the method reported previously. Fresh human red blood cells (hRBCs) with anticoagulant (EDTA) were rinsed three times with a PBS by centrifugation at 800× g for 10 min and diluted with PBS. The lipopeptides were serially diluted on a 96-well microtiter polystyrene plate and hRBCs were added up to a final volume of 100 μL. The peptide concentration ranged between 0.5 and 256 μg/mL and the final hRBCs concentration was 4% (v/v). Controls for zero hemolysis (blank) and 100% hemolysis consisted of hRBCs suspended in PBS and 1% of Triton-X 100, respectively. The plate was incubated for 1 h at 37 °C and then centrifuged (800× g, 10 min, 4 °C). Subsequently, the supernatant was […] to new microtiter plates and the absorbance at 540 nm was measured. All experiments were conducted in triplicate. HC50 was calculated using an ic50.tk tool. Protocol of the study received approval from the local Bioethics Committee at the Medical University of Gdańsk (NKBBN/262/2019, approval date: 10 June 2019).

[2] = tested on: Staphylococcus aureus ATCC 25923; settings: values marked *: performed by the group in the previous study; ref [29]; cited from earlier work
Source text: Table 2 Antimicrobial activity of lipopeptides. | column: MIC (μg/mL) / S. aureus

[3] = tested on: Candida glabrata ATCC 15126; assay type: cell-based; settings: ATCC 15126, 24 h
Experimental: (§1) The Staphylococcus aureus ATCC 25923, Staphylococcus epidermidis ATCC 14990, Escherichia coli ATCC 25922, Pseudomonas aeruginosa ATCC 9027, Candida albicans ATCC 10231, Candida glabrata ATCC 15126, Candida lipolytica PCM 2680-FY, and Candida tropicalis PCM 2709-FY strains were acquired from the Polish Collection of Microorganisms (PCM, Polish Academy of Sciences, Wrocław, Poland) and from the American Type Culture Collection (ATCC). All the strains were stored at −80 °C in Roti-Store cryo vials and before the tests were transferred into fresh Mueller–Hinton broth (MHB, Biocorp, Warsaw, Poland) for bacteria or RPMI-1640 (Sigma-Aldrich, Steinheim, Germany) for fungi and incubated for 24 h at 37 °C. Then, the cultures were seeded on Mueller–Hinton agar (BioMaxima, Lublin, Poland) or Sabouraud dextrose agar (SDA, BioMaxima, Lublin, Poland) plates, respectively, and incubated as just mentioned. These agar cultures were used for further microbiological assays. Cell densities for all assays were adjusted spectrophotometrically (Multiskan GO Microplate Spectrophotometer, Thermo Fisher Scientific, Vantaa, Finland) at 600 and 660 nm for bacteria and fungi, respectively.
(§2) MBECs were determined on 96-well polystyrene flat-bottom plates. For this purpose, 24 h cultures of microorganisms were diluted to obtain final density 5.0 × 10^5 CFU/mL and 2.0 × 10^5 CFU/mL of bacteria and fungi, respectively. Briefly, 100 µL of cell suspension was added into the test plates. After 24 h of incubation at 37 °C the wells were rinsed three times with a phosphate buffer saline (PBS, pH 7.4) to remove non-adherent cells. Subsequently, 100 μL of the test compounds in concentration range (0.5–256 μg/mL) were added to each well. After 24 h of incubation at 37 °C, 20 μL of a cell viability reagent was added (resazurin, 4 g/L; Sigma Aldrich, St. Louis, MO, USA). The MBEC was read after 1 h. The determined values were recorded as the lowest concentration at which the reduction of resazurin (from blue to pink) was lower or equal to 10 ± 0.5% as compared to the positive (100%) and negative (0%) controls. The reduction was monitored by measuring absorbance at 570 nm (reduced) and 600 nm (oxidized) using a microplate spectrophotometer (Multiskan GO Microplate Spectrophotometer, Thermo Fisher Scientific, Vantaa, Finland). All experiments were conducted in triplicate.

[4] = tested on: Staphylococcus epidermidis ATCC 14990; assay type: cell-based; settings: ATCC 14990, 24 h
Experimental: as §1, §2

[5] = tested on: Pseudomonas aeruginosa ATCC 9027; assay type: cell-based; settings: ATCC 9027, 24 h
Experimental: as §1, §2

[6] = tested on: Candida albicans ATCC 10231; assay type: cell-based; settings: ATCC 10231, 24 h
Experimental: as §1, §2

[7] = tested on: Candida lipolytica PCM 2680-FY; assay type: cell-based; settings: 24 h
Experimental: as §1, §2

[8] = tested on: Escherichia coli ATCC 25922; assay type: cell-based; settings: ATCC 25922, 24 h
Experimental: as §1, §2

[9] = tested on: Candida tropicalis PCM 2709-FY; assay type: cell-based; settings: PCM 2709-FY, 24 h
Experimental: as §1, §2

[10] = tested on: human keratinocytes (HaCaT); assay: MTT assay; assay type: cell-based; settings: 24 h incubation at 37 °C, six replicates per concentration, repeated at least twice
Experimental: (§3) To assess the cytotoxicity of the test lipopeptides (IC50), the classic MTT assay on 96-well polystyrene plates was performed for human keratinocytes (HaCaT) and human cervical adenocarcinoma cell line (HeLa S3) acquired from the ATCC. The assay utilizes colorimetric determination of the cell metabolic activity and the color intensity reflects the number of live cells that can be measured spectrophotometrically. The cell line was cultured in a Dulbecco’s modified Eagle Medium (Invitrogen) supplemented with 10% fetal bovine serum (v/v), 100 units/mL of penicillin, 100 μg/mL of streptomycin, and 2 mM l-glutamine and was stored at 37 °C in a humidified 5% CO2 incubator. Briefly, a day after plating of 500 cells per well, a series of concentrations (0.1–200 μg/mL) of the test compounds were applied. DMSO was added to the control cells at a final concentration of 1.0% (v/v), which was related to the maximal concentration of the solvent compounds used in the experiment. After 24 h of incubation with the lipopeptides at 37 °C in a humidified 5% CO2 incubator, a medium containing 1 mg/mL of MTT (3-(4,5-dimethylthiazol-2-yl)-2,5-diphenyltetrazolium bromide) was added to the wells up to a final concentration of 0.5 mg/mL. Subsequently, the plates were incubated at 37 °C for 4 h. Then, the medium was removed by suction, and the formazan product was solubilized with DMSO. The background absorbance at 630 nm was subtracted from that at 570 nm for each well (Epoch, BioTek Instruments, Winooski, VT, USA). Six replicates were conducted for each concentration. All experiments were repeated at least twice and the resulting IC50 values were calculated with a GraFit 7 software (v. 7.0, Erithacus, Berkley, CA, USA).

[11] = tested on: human cervical adenocarcinoma cell line (HeLa S3); assay: MTT assay; assay type: cell-based; settings: 24 h incubation at 37 °C, six replicates per concentration, repeated at least twice
Experimental: as §3

Q: Which HC50 [1] does the source give for `CCCCCCCCCCCCCCCC(=O)N[C@@H](CCCCN)C(=O)N[C@@H](CCCCN)C(=O)N[C@@H](CCCNC(=N)N)C(=O)N[C@@H](CCCCN)C(N)=O` [L5, C16-KKRK-NH2] (Palmitoyl-KKRK-NH2) here?
A: The HC50 was 96.7 ± 1.4 µg/mL.

Q: And the “MIC S. aureus” value [2]?
A: Its value is 16 * μg/mL.

Q: And the “MBEC C. glabrata” value [3]?
A: The value was 256 µg/mL.

Q: What about the “MBEC S. epidermidis” value [4] of the same compound?
A: Its value is 32 µg/mL.

Q: And the “MBEC P. aeruginosa” value [5]?
A: Its value is 256 µg/mL.

Q: What about the “MBEC C. albicans” value [6] of the same compound?
A: Its value is 256 µg/mL.

Q: What about the “MBEC C. lipolytica” value [7] of the same compound?
A: Its value is 64 µg/mL.

Q: And the “MBEC E. coli” value [8]?
A: The value was 64 µg/mL.

Q: And the “MBEC C. tropicalis” value [9]?
A: The value was 128 µg/mL.

Q: What about the “HaCaT IC50” value [10] of the same compound?
A: The value was 2.4 ± 0.4 µg/mL.

Q: And the “HeLa IC50” value [11]?
A: The value was 6.2 ± 2.7 µg/mL.

Q: Which HC50 [1] does the source give for `CCCCCCCCCCCCCCCC(=O)N[C@@H](CCCCN)C(=O)N[C@@H](CCCCN)C(=O)N[C@@H](CCCCN)C(=O)N[C@@H](CCCNC(=N)N)C(N)=O` [L6, C16-KKKR-NH2] (Palmitoyl-KKKR-NH2) here?
A: Its HC50 is 89.7 ± 2.4 µg/mL.

Q: What about the “MIC S. aureus” value [2] of the same compound?
A: The value was 16 * μg/mL.

Q: What about the “MBEC C. glabrata” value [3] of the same compound?
A: The value was 128 µg/mL.

Q: What about the “MBEC S. epidermidis” value [4] of the same compound?
A: Its value is 32 µg/mL.

Q: And the “MBEC P. aeruginosa” value [5]?
A: Its value is 256 µg/mL.

Q: And the “MBEC C. albicans” value [6]?
A: The value was 128 µg/mL.

Q: What about the “MBEC C. lipolytica” value [7] of the same compound?
A: Its value is 32 µg/mL.

Q: What about the “MBEC E. coli” value [8] of the same compound?
A: Its value is 256 µg/mL.

Q: And the “MBEC C. tropicalis” value [9]?
A: Its value is 128 µg/mL.

Q: What about the “HaCaT IC50” value [10] of the same compound?
A: The value was 7.5 ± 0.8 µg/mL.

Q: And the “HeLa IC50” value [11]?
A: The value was 3.6 ± 0.5 µg/mL.
